The source of these data is patent publication US9850216B2 (H. LEE MOFFITT CANCER CENTER AND RESEARCH INSTITUTE, INC., priority 2013, dated 2017).

The structures appear in SMILES notation. “And” between values parts separate entries of the source, which are not always exact repeats. Equal entries are not always repeated.

The target in data set [1] is ACK1 (Homo sapiens, UniProt Q07912). In words: ACK1 ELISA: phosphorylation of AKT-derived peptide. In kind it is biochemical. The conditions noted are these: 10 μM, Table 1, replicate values listed; for inhibition at 10 µM: read-out: % Inhibition at 10 μM (ELISA).
ACK1, sequence (Q07912 whole entry): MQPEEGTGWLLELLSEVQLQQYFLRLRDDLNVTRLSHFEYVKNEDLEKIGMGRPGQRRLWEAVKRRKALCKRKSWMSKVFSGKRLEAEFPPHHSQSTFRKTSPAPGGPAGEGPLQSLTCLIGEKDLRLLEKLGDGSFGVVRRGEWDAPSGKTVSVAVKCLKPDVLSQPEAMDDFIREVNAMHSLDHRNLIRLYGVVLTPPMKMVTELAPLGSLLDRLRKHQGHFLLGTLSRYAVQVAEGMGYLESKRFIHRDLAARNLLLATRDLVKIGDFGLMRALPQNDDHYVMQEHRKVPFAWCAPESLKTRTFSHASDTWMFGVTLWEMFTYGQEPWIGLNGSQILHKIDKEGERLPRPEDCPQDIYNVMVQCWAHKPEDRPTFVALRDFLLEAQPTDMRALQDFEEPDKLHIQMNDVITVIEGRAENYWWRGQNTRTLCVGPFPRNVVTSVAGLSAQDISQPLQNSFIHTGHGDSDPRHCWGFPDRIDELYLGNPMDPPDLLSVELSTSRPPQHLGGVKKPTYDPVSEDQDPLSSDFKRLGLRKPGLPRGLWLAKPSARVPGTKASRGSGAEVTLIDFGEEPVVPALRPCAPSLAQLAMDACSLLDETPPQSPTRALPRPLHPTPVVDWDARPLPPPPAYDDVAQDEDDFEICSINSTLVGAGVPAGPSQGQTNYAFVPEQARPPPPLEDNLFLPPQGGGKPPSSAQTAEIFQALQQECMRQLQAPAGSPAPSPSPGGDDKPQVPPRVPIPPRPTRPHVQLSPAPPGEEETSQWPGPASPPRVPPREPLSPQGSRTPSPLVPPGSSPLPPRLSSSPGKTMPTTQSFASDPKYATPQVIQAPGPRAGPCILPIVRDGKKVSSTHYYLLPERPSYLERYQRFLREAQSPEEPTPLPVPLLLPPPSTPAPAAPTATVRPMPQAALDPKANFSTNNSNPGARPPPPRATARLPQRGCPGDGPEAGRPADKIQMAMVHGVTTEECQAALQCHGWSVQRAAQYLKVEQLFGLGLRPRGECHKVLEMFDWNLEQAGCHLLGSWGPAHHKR

For the compound `CC(C)S(=O)(=O)c1ccccc1Nc1nc(Nc2ccc(O)cc2)ncc1C(=O)Nc1c(F)cccc1Cl` [YL7-045-2, N-(2-chloro-6-fluorophenyl)-2-(4-hydroxyphenylamino)-4-(2-(isopropylsulfonyl)phenylamino)pyrimidine-5-carboxamide], the melting point is 168 °C (dec.). In addition, in data set [1], the “% Inhibition at 10 μM (ELISA)” value is 50% and the inhibition at 10 µM is 47%.
On to `COc1ccc(Nc2ncc(C(=O)Nc3c(F)cccc3Cl)c(Nc3ccccc3SC(C)C)n2)cc1` [YL7-045-3, N-(2-chloro-6-fluorophenyl)-4-(2-(isopropylthio)phenylamino)-2-(4-methoxyphenylamino)pyrimidine-5-carboxamide], for which the melting point is 237 to 240 °C. Besides, in data set [1], the “% Inhibition at 10 μM (ELISA)” value was −15% and 0%.
In the case of `CC(C)Sc1ccccc1Nc1nc(Nc2ccc(O)cc2)ncc1C(=O)Nc1c(F)cccc1Cl` [YL7-045-4, N-(2-chloro-6-fluorophenyl)-2-(4-hydroxyphenylamino)-4-(2-(isopropylthio)phenylamino)pyrimidine-5-carboxamide], the melting point was 232 °C (dec.). The inhibition at 10 µM in data set [1] was 0%.
In turn, `CCCSc1ccccc1Nc1nc(Cl)ncc1C(=O)Nc1c(F)cccc1Cl` [YL7-051, 2-Chloro-N-(2-chloro-6-fluorophenyl)-4-(2-(propylthio)phenylamino)pyrimidine-5-carboxamide] yielded a melting point of 197 to 200 °C. Also, the inhibition at 10 µM in data set [1] turned out to be 0%.
`CCCS(=O)(=O)c1ccccc1Nc1nc(Cl)ncc1C(=O)Nc1c(F)cccc1Cl` [YL7-052, 2-Chloro-N-(2-chloro-6-fluorophenyl)-4-(2-(propylsulfonyl)phenylamino)pyrimidine-5-carboxamide] came in with a melting point of 226 to 229 °C. Besides, the “% Inhibition at 10 μM (ELISA)” value in data set [1] is 0% and 14% and −8%.
In the case of `CCSc1ccccc1Nc1nc(Cl)ncc1C(=O)Nc1c(F)cccc1Cl` [YL7-053, 2-Chloro-N-(2-chloro-6-fluorophenyl)-4-(2-(ethylthio)phenylamino)pyrimidine-5-carboxamide], the melting point fell in the range of 205 to 208 °C. The inhibition at 10 µM in data set [1] worked out at 0%.
Regarding `CCS(=O)(=O)c1ccccc1Nc1nc(Cl)ncc1C(=O)Nc1c(F)cccc1Cl` [YL7-054, 2-Chloro-N-(2-chloro-6-fluorophenyl)-4-(2-(ethylsulfonyl)phenylamino)pyrimidine-5-carboxamide], the melting point was 230 to 233 °C. Further, the “% Inhibition at 10 μM (ELISA)” value in data set [1] is 0% and −3% and −25%.
In the case of `CCCS(=O)(=O)c1ccccc1Nc1nc(Nc2ccc(OC)cc2)ncc1C(=O)Nc1c(F)cccc1Cl` [YL7-055-1, N-(2-chloro-6-fluorophenyl)-2-(4-methoxyphenylamino)-4-(2-(propylsulfonyl)phenylamino)pyrimidine-5-carboxamide], the melting point is 234 to 235 °C. For the same compound, the “% Inhibition at 10 μM (ELISA)” value in data set [1] was 27% and 13%.
For the compound `CCCS(=O)(=O)c1ccccc1Nc1nc(Nc2ccc(O)cc2)ncc1C(=O)Nc1c(F)cccc1Cl` [YL7-055-2, N-(2-chloro-6-fluorophenyl)-2-(4-hydroxyphenylamino)-4-(2-(propylsulfonyl)phenylamino)pyrimidine-5-carboxamide], the melting point is 165 °C (dec.). Also, in data set [1], the “% Inhibition at 10 μM (ELISA)” value is 58% and the inhibition at 10 µM is 57%.
`CCCSc1ccccc1Nc1nc(Nc2ccc(OC)cc2)ncc1C(=O)Nc1c(F)cccc1Cl` [YL7-055-3, N-(2-chloro-6-fluorophenyl)-2-(4-methoxyphenylamino)-4-(2-(propylthio)phenylamino)pyrimidine-5-carboxamide] returned a melting point of 248 to 249 °C. The “% Inhibition at 10 μM (ELISA)” value in data set [1] is 1% and 13%.
For `CCCSc1ccccc1Nc1nc(Nc2ccc(O)cc2)ncc1C(=O)Nc1c(F)cccc1Cl` [YL7-055-4, N-(2-chloro-6-fluorophenyl)-2-(4-hydroxyphenylamino)-4-(2-(propylthio)phenylamino)pyrimidine-5-carboxamide], the melting point is 208 °C (dec.). Besides, in data set [1], the “% Inhibition at 10 μM (ELISA)” value is on record as 27% and the inhibition at 10 µM is 28%.
